Experimental findings from ChEMBL document CHEMBL1127015, “Centrally acting serotonergic and dopaminergic agents. 1. Synthesis and structure-activity relationships of 2,3,3a,4,5,9b-hexahydro-1H-benz[e]indole derivatives” (J Med Chem, 1993) are described below.

Each structure is given as a SMILES string. pKi: −log10 of the molar value. Where “and” joins values, the source holds several entries; their conditions need not be identical. Equal entries are not always repeated.

The subject of assay [1] is Felis catus. The assay can be described thus: Maximum decrease of arterial blood pressure at sympathetic nerve activity (SND) in anesthetized cat has been observed following 1 mg/kg dose. It counts as functional. Further details: scale not given: the % may be the effect or the level left.
Assay [2] relates to Felis catus. The assay can be described thus: Maximum decrease of sympathetic nerve activity (SND) in anesthetized cat has been expressed as percent control. In kind it is functional. Further details: scale not given: the % may be the effect or the level left.
In assay [3] the target is T1, D(2) dopamine receptor (Homo sapiens, UniProt P14416). Put plainly: Intrinsic activity from GTP shift using membranes from CHO cells transfected with mammalian dopamine receptor D2. It counts as cell membranes.
T1 sequence (P14416 whole entry): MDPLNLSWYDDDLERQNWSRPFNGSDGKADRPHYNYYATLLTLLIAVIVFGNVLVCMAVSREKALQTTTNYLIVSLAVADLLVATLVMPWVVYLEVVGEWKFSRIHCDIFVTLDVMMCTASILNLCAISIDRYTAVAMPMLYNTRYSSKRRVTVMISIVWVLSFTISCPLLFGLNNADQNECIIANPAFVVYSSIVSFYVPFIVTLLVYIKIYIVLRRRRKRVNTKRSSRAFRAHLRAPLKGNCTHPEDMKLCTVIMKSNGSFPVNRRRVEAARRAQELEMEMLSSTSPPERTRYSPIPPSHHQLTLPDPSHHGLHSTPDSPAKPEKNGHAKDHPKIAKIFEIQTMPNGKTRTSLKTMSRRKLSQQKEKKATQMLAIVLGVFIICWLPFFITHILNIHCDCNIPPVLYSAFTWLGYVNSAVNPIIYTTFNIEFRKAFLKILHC
In assay [4] the target is D(2) dopamine receptor (Rattus norvegicus, UniProt P61169). Put plainly: Binding affinity against [3H]raclopride-labeled dopamine receptor D2 in rat striatum. It counts as tissue-based.
Sequence of D(2) dopamine receptor (Rattus norvegicus, UniProt P61169) (P61169 whole entry): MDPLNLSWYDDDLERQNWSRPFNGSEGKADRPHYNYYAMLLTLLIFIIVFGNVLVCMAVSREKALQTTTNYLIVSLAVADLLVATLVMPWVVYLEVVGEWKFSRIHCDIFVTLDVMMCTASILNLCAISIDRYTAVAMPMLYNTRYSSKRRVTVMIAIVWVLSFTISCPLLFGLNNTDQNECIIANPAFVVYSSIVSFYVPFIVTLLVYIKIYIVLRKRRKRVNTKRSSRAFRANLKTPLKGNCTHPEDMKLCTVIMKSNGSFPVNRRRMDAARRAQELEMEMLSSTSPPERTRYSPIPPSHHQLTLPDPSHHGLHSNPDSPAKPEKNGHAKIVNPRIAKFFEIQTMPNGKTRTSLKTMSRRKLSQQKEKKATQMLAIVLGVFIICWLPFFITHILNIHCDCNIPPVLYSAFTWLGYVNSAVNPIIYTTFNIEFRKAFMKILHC
Assay [5] relates to Mus musculus. The assay can be described thus: Antagonism of apomorphine in reserpinized mice when a dose of 3.6 micro mol/kg is administered intraperitoneally. In kind it is functional.
Assay [6] concerns Mus musculus. The assay can be described thus: Antagonism of apomorphine in reserpinized mice when a dose of 36 micro mol/kg is administered intraperitoneally. It counts as functional.
The subject of assay [7] is Mus musculus. Put plainly: Antagonism of apomorphine effects for 10-20 minutes in reserpinized mice following 0.4 umol/kg i.p. In kind it is functional.
Assay [8] relates to Mus musculus. The assay can be described thus: Antagonism of apomorphine for 10-20 minutes in reserpinized mice when a dose of 3.6 micro mol/kg is administered intraperitoneally. In kind it is functional.
The subject of assay [9] is Mus musculus. Put plainly: Antagonism of apomorphine effects for 0-10 minutes in reserpinized mice following 0.4 umol/kg i.p. It counts as functional. Set-up: unit not given beside the values.
Assay [10] relates to Mus musculus. Put plainly: Antagonism of apomorphine for 0-10 minutes in reserpinized mice when a dose of 3.6 micro mol/kg is administered intraperitoneally. In kind it is functional.
Assay [11] concerns Mus musculus. Put plainly: Antagonism of apomorphine for 0-10 minutes in reserpinized mice when a dose of 36 micro mol/kg is administered intraperitoneally. It counts as functional.
For assay [12], the system named is Mus musculus. Put plainly: Ability to stimulate dopaminergic systems by effect on locomotor activity in reserpinized mice when a dose of 3.6 micro mol/kg is administered intraperitoneally. It counts as functional.
Assay [13] deals with Mus musculus. The assay can be described thus: Ability to stimulate dopaminergic systems by effect on locomotor activity in reserpinized mice when a dose of 36 micro mol/kg is administered intraperitoneally. In kind it is functional.
In assay [14] the test system is Mus musculus. Put plainly: Increase in locomotor activity in reserpinized mice following 0.4 umol/kg i.p. In kind it is functional.
Assay [15] deals with Mus musculus. Put plainly: Antagonism of apomorphine for 10-20 minutes in reserpinized mice when a dose of 36 micro mol/kg is administered intraperitoneally. In kind it is functional.
For assay [16], the species on record is Rattus norvegicus. The assay can be described thus: Effect on the synthesis rates of serotonin (5-HTP accumulation) in the rat ventral limbic brain region at 10.7uMkg. It counts as functional, Limbic system.
Assay [17] is filed under the species Rattus norvegicus. The assay can be described thus: Effect on the synthesis rates of serotonin (5-HTP accumulation) in the rat ventral limbic brain region at 10.7uMkg. value as percent change from the control. In kind it is functional, Limbic system.
Assay [18] concerns Rattus norvegicus. The assay can be described thus: Inhibition of firing rates of dopaminergic neurons in the substantia nigra pars compacta by intravenous injection in rats. In kind it is functional.
The subject of assay [19] is Mus musculus. The assay can be described thus: Antagonism of apomorphine effects in reserpinized mice following 0.4 umol/kg i.p. It counts as functional.
In assay [20] the test system is Mus musculus. Put plainly: Effective dose on hypothermia in mouse when administered subcutaneously. It counts as functional. The settings on record: sc.
Assay [21] addresses T1, D(2) dopamine receptor. The assay can be described thus: Compound was evaluated for the binding affinity against [3H]U-86,170-labeled dopamine receptor D2 in cloned CHO cells. In kind it is cell-based.
The subject of assay [22] is Rattus norvegicus. Put plainly: Inhibition of firing rates of dopaminergic neurons in the substantia nigra pars compacta by intravenous injection in rats. In kind it is functional.
Assay [23] relates to Rattus norvegicus. Put plainly: Inhibition of firing rates of serotonergic neurons in the substantia nigra pars compacta by intravenous injection in rats. It counts as functional.
Assay [24] deals with Mus musculus. The assay can be described thus: Time of effect in the face-to-face behavioral assay in the mouse when a dose of 0.0 micro mol/kg is administered perorally. In kind it is functional.
Assay [25] has as its system Mus musculus. The assay can be described thus: Time of effect in the face-to-face behavioral assay in the mouse when a dose of 0.4 micro mol/kg is administered perorally. In kind it is functional.
Assay [26] deals with Mus musculus. Put plainly: Time of effect in the face-to-face behavioral assay in the mouse when a dose of 3.6 micro mol/kg is administered perorally. In kind it is functional.
Assay [27] relates to Mus musculus. Put plainly: Maximum decrease in temperature when compound is administered subcutaneously. In kind it is functional.
For assay [28], the system named is Mus musculus. The assay can be described thus: Time of effect in the isolation-induced aggression behavioral assay in the mouse when a dose of 36 micro mol/kg is administered perorally. It counts as functional.
Assay [29] concerns Mus musculus. Put plainly: Time of effect in the isolation-induced aggression behavioral assay in the mouse when a dose of 0.0 micro mol/kg is administered perorally. It counts as functional.
Assay [30] relates to Mus musculus. The assay can be described thus: Time of effect in the face-to-face behavioral assay in the mouse when a dose of 36 micro mol/kg is administered perorally. It counts as functional.

The term pKi denotes −log10 of the Ki, conventionally taken in molar units. Regarding `C=CCN1CCC2c3cccc(OC)c3CC[C@H]21` (mixture of isomers), the Control is given as 98% in the assay with Felis catus [1], 132% in the assay with Felis catus [2], 147% in the assay filed under Rattus norvegicus [16] and -4% in the assay filed under Rattus norvegicus [17]. Moreover, at D(2) dopamine receptor [3], the Intrinsic activity is 0%. Further, on D(2) dopamine receptor [4], the pKi was 7.38. For the same molecule, the Locomotor activity was 27 with Mus musculus [5]; 1 with Mus musculus [6]; 92 in the assay with Mus musculus [7]; 59 with Mus musculus [8]; 91 in the assay with Mus musculus [9]; 112 in the assay with Mus musculus [10]. The Locomotor activity with Mus musculus [11] came out at 33; with Mus musculus [12], 9; with Mus musculus [13], 9; with Mus musculus [14] it was 15; with Mus musculus [15] it was 17; with Mus musculus [19], 73. Further, the ED50 is 0.42 µM/kg and 0.88 µM/kg with Rattus norvegicus [18]; above 107 µmol/kg in the assay with Mus musculus [20].
As to `COc1cccc2c1C1CCN(CCc3ccccc3)[C@H]1CC2` (stereo partly drawn), the pKi at D(2) dopamine receptor [21] was 6.41.
Consider `C=CCN1CC[C@H]2c3cccc(OC)c3CC[C@H]21`, for which the Intrinsic activity on D(2) dopamine receptor [3] is 0%. The pKi at D(2) dopamine receptor [4] was 7.60. Further, the Locomotor activity in the assay on Mus musculus [5] worked out at 62; in the assay with Mus musculus [6], 21; in the assay on Mus musculus [7] it was 120; in the assay with Mus musculus [8], 105; in the assay on Mus musculus [9], 164; with Mus musculus [10], 130. Further, the Locomotor activity is 52 in the assay on Mus musculus [11]; 5 in the assay on Mus musculus [12]; 3 in the assay on Mus musculus [13]; 17 in the assay with Mus musculus [14]; 38 in the assay with Mus musculus [15]; 78 in the assay with Mus musculus [19]. For the same molecule, the ED50 came out at 0.91 µmol/kg in the assay with Rattus norvegicus [22] and 0.24 µmol/kg in the assay on Rattus norvegicus [23].
For the molecule `C=CCN1CCC2c3c(cccc3OC)CC[C@@H]21` (single isomer, unassigned; (+)), at D(2) dopamine receptor [3], the Intrinsic activity was found to be 17%. Also, the Locomotor activity in the assay on Mus musculus [5] is recorded as 114; in the assay with Mus musculus [6], 115; in the assay with Mus musculus [7] it was 92; with Mus musculus [8], 77; with Mus musculus [9] it was 83; in the assay with Mus musculus [10] it was 73. Further, the Locomotor activity came out at 54 in the assay with Mus musculus [11]; 12 in the assay with Mus musculus [12]; 18 in the assay on Mus musculus [13]; 8 in the assay with Mus musculus [14]; 67 in the assay on Mus musculus [15]; 103 in the assay with Mus musculus [19]. Also, the Time in the assay on Mus musculus [24] came out at 0.8 s; in the assay with Mus musculus [25], 0.9 s; with Mus musculus [26], 0.6 s; with Mus musculus [28] it was 21 s; in the assay on Mus musculus [29], 27 s; in the assay with Mus musculus [30], 1 s. For the same molecule, the Max temperature decrease in the assay with Mus musculus [27] is 3.9. In addition, in the assay on Mus musculus [20], the ED50 came out at 62 µmol/kg.
